From patent US11220690B2, “Formulation” (ATLANTIC PHARMACEUTICALS (HOLDINGS) LTD, priority 2017, dated 2022)

Experiments:
[1] = Circular Dichroism (CD) spectroscopy, thermal stability of secondary structure; format: physicochemical
From the text: SEQ ID NO:1 was therefore subjected to Circular Dichroism (CD) spectroscopy to gather information about the possible secondary structure. CD of DNA can be utilized to detect all 3 major forms of duplex structure (B, A and Z) and is sensitive to conditions that disrupt the structure such a heating. Of interest was the stability of any secondary structure detected at or above physiologic temperatures. Shown in FIG. 6 is the CD spectra of sample SEQ ID NO:1 in ddH20 at 4 C.
Additional thermal denaturation of the putative duplex was also studied in the presence of Na^+ at concentrations of 50 mM and 150 mM. Sodium fluoride was used as Cl^− ions interfere with the CD spectra in this UV region.
Additional experiments were conducted to test the influence of Mg^++ and polyamines on the stability of the structure.

TLR9 [2] = biological target: T1, TLR9 (Homo sapiens, UniProt Q9NR96); assay: Inhibition of TLR9-mediated NF-kB induction activated by CpG ODN2006, luciferase reporter HEK 293 cell line; format: cell-based; set-up: host or cells: HEK 293 (TLR9/NF-kB luciferase reporter line)
T1 sequence (Q9NR96 26-1032): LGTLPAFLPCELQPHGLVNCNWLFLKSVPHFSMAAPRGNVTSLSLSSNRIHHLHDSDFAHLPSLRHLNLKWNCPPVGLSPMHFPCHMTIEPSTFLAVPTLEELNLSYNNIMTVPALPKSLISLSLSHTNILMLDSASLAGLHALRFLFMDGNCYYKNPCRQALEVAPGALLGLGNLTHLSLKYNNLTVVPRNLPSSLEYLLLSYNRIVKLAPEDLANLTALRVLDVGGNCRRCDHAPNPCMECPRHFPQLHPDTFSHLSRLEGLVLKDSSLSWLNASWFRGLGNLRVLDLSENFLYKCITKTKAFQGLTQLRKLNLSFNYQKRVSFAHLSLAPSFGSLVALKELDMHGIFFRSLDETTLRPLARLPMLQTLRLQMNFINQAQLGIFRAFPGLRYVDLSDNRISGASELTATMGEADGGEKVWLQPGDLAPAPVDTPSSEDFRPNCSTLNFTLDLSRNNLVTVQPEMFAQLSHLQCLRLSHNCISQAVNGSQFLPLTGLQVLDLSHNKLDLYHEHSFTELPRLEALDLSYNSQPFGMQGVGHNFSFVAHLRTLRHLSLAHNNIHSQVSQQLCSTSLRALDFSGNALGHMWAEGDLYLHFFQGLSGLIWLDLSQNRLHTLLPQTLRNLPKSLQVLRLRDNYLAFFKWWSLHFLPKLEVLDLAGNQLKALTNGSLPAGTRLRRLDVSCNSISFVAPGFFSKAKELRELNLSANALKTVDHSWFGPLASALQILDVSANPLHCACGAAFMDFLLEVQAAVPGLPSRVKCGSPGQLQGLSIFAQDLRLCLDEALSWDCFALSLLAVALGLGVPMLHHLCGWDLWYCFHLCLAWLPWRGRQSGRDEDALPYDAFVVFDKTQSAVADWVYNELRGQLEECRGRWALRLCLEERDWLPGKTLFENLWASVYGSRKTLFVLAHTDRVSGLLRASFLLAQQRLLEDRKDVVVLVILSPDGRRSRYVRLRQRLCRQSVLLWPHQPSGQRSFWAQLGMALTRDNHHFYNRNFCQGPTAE
Experimental: SEQ ID NO:1 was next screened for dose responsive inhibition activity to determine the IC50 against TLR9-mediated NF-kB induction at seven different doses (0.1, 1, 5, 10, 25, 50 and 100 μM) in triplicate. Briefly, the TLR9/NF-kB luciferase reporter HEK 293 cell line was plated in 96-well white solid plates at 5×10^4 cells per well for 16 h. Cells were pretreated with different doses of SEQ ID NO:1 in triplicate for 1 h. Cells were then treated with 20 ug/ml of CpG ODN2006 to activate TLR9. After 16 h, luciferase activity was measured and analyzed.

TLR9 [3] = biological target: T1, TLR9; assay: Inhibition of TLR-9 activated by E. coli genomic DNA; format: cell-based; conditions: E. coli genomic DNA as activator of TLR-9
From the text: While the data of FIG. 4 indicate that SEQ ID NO:1 is more likely to form a homodimer than a heterodimer with ODN2006, additional experiments tested the antagonist activity of SEQ ID NO:1 in the presence of E. coli genomic DNA as the activator.

TLR9 [4] = biological target: T1, TLR9; assay: TLR9 activation (agonist) screen, TLR9/NF-kB luciferase reporter HEK 293 cell line; format: cell-based; set-up: host or cells: HEK 293 (TLR9/NF-kB luciferase reporter line); conditions: up to concentrations as high as 100 uM, 16 h treatment
Experimental: […] Briefly, the TLR9/NF-kB luciferase reporter HEK 293 cell line (Abeomics, San Diego, Calif.) was plated in 96-well white solid plates at 5×10^4 cells per well for 16 h. […] Luciferase activity was then measured and analyzed.

pigmented C57BL/6N mice = assay: Murine model of dry eye by scopolamine administration; format: in vivo, Mouse; conditions: for Corneal fluorescein staining score (mean ± SD): 5 μL in both eyes, one dose per day
From the text: In a model of mice, the application of transdermal scopolamine patches to the mid-tail is used to reduce aqueous tear production and thus mimic lacrimal gland insufficiency. The function of scopolamine is to induce a pharmacologic blockade of cholinergic receptors in the lacrimal gland and therefore to decrease aqueous production. The desiccation is amplified by adding environmental stress Animals are exposed to a low-humidity environment and constant airflow.
• Species: Mouse. • Strain: C57BL/6N (pigmented). • Age: Approximately 6-7 weeks (at the first day of induction). • Number/sex: 55 females (study 40; reserve 15).
Mice were treated with transdermal scopolamine administration (0.5 mg/72 h; Scopoderm TTS®). The transdermal scopolamine patch was wrapped near the tail base of the mouse, secured with cellophane tape. Patches were reapplied every 48 hours.
Mice were randomized into 4 groups of 10 animals. The study was divided into 2 experimental sets with 5 animals of each group represented.
All test items, control items and comparator item were instilled in both eyes (5 μL per administration), using a micropipette.
Tear production and corneal defects were assessed at baseline, on Days 3, 6 and 10 using phenol red thread (PRT) and corneal fluorescence staining (CFS), respectively, for each animal of the 4 groups.
A) Measurement of Aqueous Tear Production PRT Test. • Tear production was measured with the PRT test (Zone-Quick, FCI-Ophthalmics) on both eyes, before administration on Day 3 and at least one hour after the second treatment for the other days of the study. The thread was placed in the lateral cantus of the lateral conjunctival fornix for 30 seconds. The thread wet by tears would turn red, indicated aqueous tear production.
B) Corneal Fluorescein Staining (CFS) • At the different time points the measurement was performed before administration on Day 3 and at least one hour after the second treatment for the other days of the study. The eyes of the animals from all groups were examined by slit-lamp observation using blue light after 0.5% fluorescein eye drop instillation (0.5 μL). Punctuate staining was recorded with the standardized National Eye Institute (NEI) grading system giving a 0-3 score to each of the 5 areas in which the corneas were divided. Results: Animal Behaviour and Body Weights

Question: For “alicaforsen (GCCCAAGCTGGCATCCGTCA; chemistry not given here; listed as Homo sapiens) [SEQ ID NO:1]”, which “intensity of the 190 nm peak after cooling back” value ([1]; 50 and 150 mM sodium, samples cooled back to 20° C. after heating) is on record?
Answer: returned to pre-heated levels

Question: What about the “structure retained (intensity of the 190 nm peak) on heating” value ([1]; both 50 and 150 mM sodium (sodium fluoride), to 40° C.) of the same substance?
Answer: at least 50%

Question: What about the “loss of signal strength of positive CD band at 190 nm” value ([1]; in ddH20, heating to 80° C.) of the same substance?
Answer: > 85%

Question: What about the “effect of spermine on secondary structure (CD spectra)” value ([1]; spermine at 5 mM in the presence of 50 mM Na+) of the same substance?
Answer: completely abolished the secondary structure

Question: And the TLR-9 antagonist activity (TLR9 [2]; ODN2006 as activator)?
Answer: antagonist of TLR-9

Question: And the “concentrations required for TLR-9 antagonism compared with inhibition of ICAM-1 expression” value (TLR9 [2]; comparative dose responses, FIG. 3)?
Answer: requires higher concentrations than the inhibition of ICAM-1 expression

Question: And the “antagonist activity in the presence of E. coli genomic DNA as the activator” value (TLR9 [3])?
Answer: remained antagonistic

Question: And the “agonist activity (TLR9 activation)” value (TLR9 [4])?
Answer: devoid of agonist activity

Question: And the “Corneal fluorescein staining score (mean ± SD)” value (pigmented C57BL/6N mice; Day 6, alicaforsen 1 mM)?
Answer: 10.5 ± 2.6

Question: What about the “Corneal fluorescein staining score (mean ± SD)” value (pigmented C57BL/6N mice; Day 6, alicaforsen 10 mM) of the same substance?
Answer: 10.8 ± 2.0

Question: What about the “Corneal fluorescein staining score (mean ± SD)” value (pigmented C57BL/6N mice; Day 10, alicaforsen 1 mM, listed as ALICAFORSEN) of the same substance?
Answer: 9.3 ± 3.1

Question: And the “Corneal fluorescein staining score (mean ± SD)” value (pigmented C57BL/6N mice; Day 10, alicaforsen 1 mM, listed as alicaforsen)?
Answer: lower than the Vehicle group

Question: What about the “Corneal fluorescein staining score (mean ± SD)” value (pigmented C57BL/6N mice; Day 10, alicaforsen 10 mM, listed as ALICAFORSEN) of the same substance?
Answer: 9.7 ± 2.2

Question: And the “Corneal fluorescein staining score (mean ± SD)” value (pigmented C57BL/6N mice; Day 10, alicaforsen 10 mM, listed as alicaforsen)?
Answer: lower than the Vehicle group

Question: And the clinical tolerability (pigmented C57BL/6N mice; multiple topical administrations, 1 mM and 10 mM)?
Answer: clinically well tolerated
